Assay results: PubChem BioAssay (NCI)
Values joined by “and” are separate entries in the source; they are usually repeats but may differ in a detail not shown here. Equal values may be shown once.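 Following 48 hours of exposure in 96-well plates, responses at five concentrations were used to interpolate endpoints linearly. The concentration for 50% growth inhibition is given as GI50. At the TGI there is no net growth.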

Legend:
Assay in all cases: growth of human tumour cells (NCI), 48 h
[1] = system: EKVX NSCLC
[2] = system: UACC-62 melanoma
[3] = system: SN12C renal
[4] = system: CAKI-1 renal
[5] = system: SF-295 CNS
[6] = system: RPMI-8226 leukemia
[7] = system: OVCAR-5 ovarian
[8] = system: OVCAR-3 ovarian
[9] = system: HCC-2998 colon
[10] = system: A549 NSCLC

SMILES | TGI [1] | TGI [2] | TGI [3] [µM] | TGI [4] | TGI [5] | TGI [6] [µM] | TGI [7] [µM] | TGI [8] | TGI [9] [µM] | TGI [10] | GI50 [1] [nM] | GI50 [2] [nM] | GI50 [3] [nM] | GI50 [4] [nM] | GI50 [5] [nM] | GI50 [6] [nM] | GI50 [7] [nM] | GI50 [8] [nM] | GI50 [9] [nM] | GI50 [10] [nM]
S=c1[nH]nc(COc2ccc(Cl)cc2)o1 | > 100 µM | > 100 µM | > 100 | > 100 µM | > 100 µM | > 100 | > 100 | > 100 µM | > 100 | > 100 µM | – | – | – | – | – | – | – | – | – | –
C[C@H]1[C@H](OC(=O)CCC(=O)O)O[C@@H]2O[C@]3(C)CC[C@H]4[C@H](C)CC[C@@H]1[C@@]24OO3 | 18.3 µM | 27.4 µM | > 48.9 | 36 µM | > 67.3 µM | 13 | 20.5 | 15.2 µM | 24 | 18.3 µM | 443 | 474 | 777 | 532 | 518 | 94.8 | 669 | 415 | 1480 | 959
CCOP(=O)(OCC)C1C(=O)O[C@H]2CCCC[C@@H]12 (some centres undefined) | > 100 µM | > 100 µM | > 100 | > 100 µM | > 100 µM | > 100 | > 100 | > 100 µM | > 100 | > 100 µM | – | – | – | – | – | – | – | – | – | –
COc1cc(O)c(C(=O)/C=C/c2ccccc2)c(OC)c1 | 22.4 µM | 17.3 µM | 11.6 | 18.2 µM | 26.9 µM | 10.3 | > 100 | 44.7 µM | 14.1 | 30 µM | – | – | – | – | – | – | – | – | – | –
COc1ccccc1C(=O)/C=C/c1cc2cccc(OC)c2[nH]c1=O | 3.17 µM | 1.93 µM | 2.64 | 1.54 µM | 3.85 µM | 1.42 | 2.89 | 0.6 µM | 1.3 | 12.6 µM | 375 | 41.2 | 79 | 24.1 | 25.6 | < 18.1 | 321 | 34.3 | 141 | 69
CCOC(=O)CCC(NC(=O)c1ccc(N=Cc2nc3cc(C(F)(F)F)ccc3nc2-c2ccccc2)cc1)C(=O)OCC (centres undefined) | 50 µM and > 100 µM | 40.7 µM and > 100 µM | > 100 | 50 µM and > 100 µM | 31.8 µM and > 100 µM | > 100 | > 100 | 50 µM and > 100 µM | > 100 | 50 µM and > 100 µM | > 100000 | 61600 | > 100000 | > 100000 | 71900 | > 100000 | > 100000 | > 100000 | > 100000 | > 100000
CC(=O)O[C@H]1C(=O)[C@@]2(C)C([C@H](OC(=O)c3ccccc3)[C@]3(O)C[C@H](OC(=O)[C@H](O)[C@H](NC(=O)c4ccccc4)c4ccc(Cl)cc4)C(C)=C1C3(C)C)C1(OC(C)=O)CO[C@@H]1C[C@@H]2O (some centres undefined) | 40.6 µM | 0.00418 µM | – | 23.9 µM | – | 4.67 | 0.0407 | 0.0124 µM | 0.0105 | 24.4 µM | 204 | – | – | – | 16.7 | – | – | – | – | –
NNC(=O)/C(=C/c1cccc([N+](=O)[O-])c1)NC(=O)c1ccccc1 | > 100 µM | – | > 100 | > 100 µM | > 100 µM | > 100 | > 100 | > 100 µM | > 100 | > 100 µM | – | – | – | – | – | – | – | – | – | –
